Results reported in ChEMBL document CHEMBL1641524, “Synthesis and SAR of novel CXCR4 antagonists that are potent inhibitors of T tropic (X4) HIV-1 replication” (Bioorg Med Chem Lett, 2011).

How the values were obtained:
[1] = biological target: T1, C-X-C chemokine receptor type 4 (Homo sapiens, UniProt P61073); test: Antagonist activity at CXCR4 in human CEM-CCRF cells expressing CD4 assessed as inhibition of SDF-1-induced Ca2+ signaling; assay type: functional, cell-based
[2] = test system: Human immunodeficiency virus 1; test: Antiviral activity against X4 tropic HIV1 NL4.3 infected in human MT4 cells expressing CD4 and CXCR4 assessed as inhibition of virus-induced cytopathicity; assay type: functional, organism-based; details: Human immunodeficiency virus 1, NL4.3, MT4
[3] = Cytotoxicity against human MT4 cells expressing CD4 and CXCR4; assay type: cell-based
[4] = test system: Human immunodeficiency virus 1; test: Antiviral activity against X4 tropic HIV1 infected in human PBMC assessed as inhibition of virus-induced cytopathicity; assay type: functional, organism-based
[5] = test system: Human immunodeficiency virus 1; test: Antiviral activity against X4 tropic HIV1 infected in human PBMC assessed as inhibition of virus-induced cytopathicity in presence of 1 mg/mL of alpha-acid glycoprotein; assay type: functional
[6] = biological target: T1, C-X-C chemokine receptor type 4; test: Displacement of [125I]SDF-1 from CXCR4 in human CEM-CCRF cells expressing CD4 by liquid scintillation counting; assay type: cell-based
Rattus norvegicus [7] = test: (§1) Cmax in rat at 10 umol/kg, iv; assay type: ADME, organism-based; set-up: dose 10 umol/kg, route intravenous; details: in vivo
[8] = Cmax in dog at 5 umol/kg, iv; assay type: ADME, organism-based, Canis lupus familiaris; set-up: dose 5 umol/kg, route intravenous; details: in vivo
Rattus norvegicus [9] = test: (§2) AUC (0 to infinity) in rat at 10 umol/kg, iv; assay type: ADME, organism-based, Plasma; set-up: dose 10 umol/kg, time infinity, route intravenous; details: in vivo
Canis familiaris = test: (§3) AUC (0 to infinity) in dog at 5 umol/kg, iv; assay type: ADME, organism-based, Canis lupus familiaris, Plasma; set-up: dose 5 umol/kg, time infinity, route intravenous; details: in vivo
[10] = Volume of distribution in rat at 10 umol/kg, iv; assay type: ADME, organism-based; details: in vivo
[11] = Volume of distribution in dog at 5 umol/kg, iv; assay type: ADME, organism-based, Canis lupus familiaris; details: in vivo
Rattus norvegicus [12] = test: (§4) Half life in rat at 10 umol/kg, iv; assay type: ADME, organism-based; details: in vivo
[13] = Half life in dog at 5 umol/kg, iv; assay type: ADME, organism-based, Canis lupus familiaris; details: in vivo
[14] = Oral bioavailability in rat at 100 umol/kg; assay type: ADME, organism-based; details: in vivo
[15] = Oral bioavailability in dog at 12.5 umol/kg; assay type: ADME, organism-based, Canis lupus familiaris; details: in vivo
[16] = as §1; assay type: ADME, organism-based; set-up: dose 10 umol/kg, route intravenous; details: in vivo, 10 umol/kg
[17] = as §2; assay type: ADME, organism-based, Plasma; set-up: dose 10 umol/kg, time infinity, route intravenous; details: plasma, 10 umol/kg
[18] = Clearance in rat at 10 umol/kg, iv; assay type: ADME, organism-based; details: in vivo
[19] = as §4; assay type: ADME, organism-based; details: in vivo, 10 umol/kg
[20] = as §3; assay type: ADME, organism-based, Canis lupus familiaris, Plasma; set-up: dose 5 umol/kg, time infinity, route intravenous; details: plasma, 5 umol/kg
[21] = Clearance in dog at 5 umol/kg, iv; assay type: ADME, organism-based, Canis lupus familiaris; details: in vivo

T1 sequence (P61073 whole entry): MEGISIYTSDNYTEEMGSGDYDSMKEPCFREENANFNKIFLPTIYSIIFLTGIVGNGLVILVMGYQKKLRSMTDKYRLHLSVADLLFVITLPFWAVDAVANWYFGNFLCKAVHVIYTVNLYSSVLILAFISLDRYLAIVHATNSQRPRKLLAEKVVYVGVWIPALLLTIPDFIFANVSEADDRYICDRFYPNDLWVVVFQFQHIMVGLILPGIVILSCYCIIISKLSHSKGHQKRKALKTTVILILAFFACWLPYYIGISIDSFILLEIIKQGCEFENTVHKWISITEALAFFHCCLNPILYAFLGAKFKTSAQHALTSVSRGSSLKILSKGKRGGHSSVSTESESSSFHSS

Compound	IC50 [1]	IC50 [2]	CC50 [3]	also measured
NCc1ccccc1CN(Cc1nc2ccccc2[nH]1)C1CCCc2cccnc21 (configuration not stated)	0.028 µM			
NCc1cc(F)ccc1CN(Cc1nc2ccccc2[nH]1)C1CCCc2cccnc21 (configuration not stated)	0.219 µM	0.165 µM	45.6 µM	
NCc1cc(C(F)(F)F)ccc1CN(Cc1nc2ccccc2[nH]1)C1CCCc2cccnc21 (configuration not stated)	0.051 µM	0.104 µM	26.6 µM	
NCc1cc(C(=O)O)ccc1CN(Cc1nc2ccccc2[nH]1)C1CCCc2cccnc21 (configuration not stated)	0.126 µM	0.069 µM	137 µM	
COC(=O)c1ccc(CN(Cc2nc3ccccc3[nH]2)C2CCCc3cccnc32)c(CN)c1 (configuration not stated)	0.039 µM	0.105 µM	42.2 µM	
NCc1ccncc1CN(Cc1nc2ccccc2[nH]1)C1CCCc2cccnc21 (configuration not stated)	0.16 µM	0.124 µM	128 µM	
NCc1nccnc1CN(Cc1nc2ccccc2[nH]1)C1CCCc2cccnc21 (configuration not stated)		> 1.23 µM	6.1 µM	
NCc1ccc(CN(Cc2nc3ccccc3[nH]2)C2CCCc3cccnc32)s1 (configuration not stated)		2.48 µM	28.5 µM	
NCc1ccc(CN(Cc2nc3ccccc3[nH]2)C2CCCc3cccnc32)o1 (configuration not stated)		3.57 µM	28.5 µM	
NCc1[nH]cnc1CN(Cc1nc2ccccc2[nH]1)C1CCCc2cccnc21 (configuration not stated)		> 1.16 µM	5.8 µM	
NCc1ocnc1CN(Cc1nc2ccccc2[nH]1)C1CCCc2cccnc21 (configuration not stated)		2.83 µM	32.9 µM	
NCc1nc(CN(Cc2nc3ccccc3[nH]2)C2CCCc3cccnc32)co1 (configuration not stated)		20.1 µM	28.5 µM	
NCc1cscc1N(Cc1nc2ccccc2[nH]1)C1CCCc2cccnc21 (configuration not stated)	0.013 µM	0.103 µM	32.9 µM	

The remaining compounds from weak to strong by IC50 [2], led by results:

IC50 [1]	IC50 [2]	Compound	CC50 [3]	also measured
0.005 µM	0.022 µM	CO/N=C/c1ccc(CN(Cc2nc3ccccc3[nH]2)C2CCCc3cccnc32)c(CN)c1 (configuration not stated)	26.8 µM	
0.021 µM	0.021 µM	NCc1ncccc1CN(Cc1nc2ccccc2[nH]1)C1CCCc2cccnc21 (configuration not stated)	150 µM	
0.021 µM	0.02 µM	COCc1ccc(CN(Cc2nc3ccccc3[nH]2)C2CCCc3cccnc32)c(CN)c1 (configuration not stated)	201 µM	
0.005 µM	0.018 µM	COc1ccc(CN(Cc2nc3ccccc3[nH]2)C2CCCc3cccnc32)c(CN)c1 (configuration not stated)	36.5 µM	
0.011 µM	0.017 µM	NCc1cc(CO)ccc1CN(Cc1nc2ccccc2[nH]1)C1CCCc2cccnc21 (configuration not stated)	37.5 µM	
0.06 µM	0.014 µM	NCc1sccc1CN(Cc1nc2ccccc2[nH]1)C1CCCc2cccnc21 (configuration not stated)	31.5 µM	
0.015 µM	0.012 µM	NCc1cc(C(N)=O)ccc1CN(Cc1nc2ccccc2[nH]1)C1CCCc2cccnc21 (configuration not stated)	120 µM	
0.025 µM	0.0109 µM	NCc1cocc1N(Cc1nc2ccccc2[nH]1)C1CCCc2cccnc21 (configuration not stated)	30.2 µM	
0.021 µM	0.008 µM	NCc1occc1CN(Cc1nc2ccccc2[nH]1)C1CCCc2cccnc21 (configuration not stated)	50 µM	
0.0013 µM	0.0072 µM	NCc1ncoc1CN(Cc1nc2ccccc2[nH]1)C1CCCc2cccnc21 (configuration not stated)	64.5 µM	
	0.0042 µM	NCc1ncccc1CN(Cc1nc2ccccc2[nH]1)[C@H]1CCCc2cccnc21		IC50 [4]: 0.0099 µM; fold change (FC) [5]: 24; IC50 [6]: 0.0198 µM; Cmax (Rattus norvegicus [7]): 1200 nM; Cmax [8]: 4200 nM; AUC (Rattus norvegicus [9]): 5.4 µM·h; AUC (Canis familiaris): 13.5 µM·h; Vd [10]: 6.6 L/kg; Vd [11]: 2.6 L/kg; t1/2 (Rattus norvegicus [12]): 0.8 h; half-life [13]: 5.7 h; bioavailability [14]: 22%; bioavailability [15]: 84%
0.01 µM	0.002 µM	NCc1ccc(CN(Cc2nc3ccccc3[nH]2)C2CCCc3cccnc32)c(CN)c1 (configuration not stated)	122 µM	
	0.00099 µM	NCc1cscc1N(Cc1nc2ccccc2[nH]1)[C@H]1CCCc2cccnc21		IC50 [4]: 0.002 µM; fold change (FC) [5]: 28; IC50 [6]: 0.0889 µM; Cmax [16]: 1400 nM; Cmax [8]: 2600 nM; AUC(0-inf) [17]: 3.7 µM·h; AUC (Canis familiaris): 3.7 µM·h; clearance [18]: 27.2 mL/min/kg; Vd [10]: 5.2 L/kg; Vd [11]: 2.2 L/kg; half-life [19]: 1.7 h; half-life [13]: 3.4 h; bioavailability [14]: 6%; bioavailability [15]: 9%
0.012 µM	0.0004 µM	NCc1ccoc1CN(Cc1nc2ccccc2[nH]1)C1CCCc2cccnc21 (configuration not stated)	28.5 µM	
	0.00031 µM	NCc1cocc1N(Cc1nc2ccccc2[nH]1)[C@H]1CCCc2cccnc21		IC50 [4]: 0.0041 µM; fold change (FC) [5]: 17; IC50 [6]: 0.0445 µM; Cmax [16]: 3000 nM; Cmax [8]: 4700 nM; AUC(0-inf) [17]: 12.5 µM·h; AUC(0-inf) [20]: 16.4 µM·h; clearance [18]: 23.3 mL/min/kg; clearance [21]: 3.7 mL/min/kg; Vd [10]: 3.6 L/kg; Vd [11]: 0.7 L/kg; half-life [19]: 2.1 h; half-life [13]: 2.7 h; bioavailability [14]: 17%; bioavailability [15]: 28%
